From patent US20240025906A1 (NEURON23, INC., priority 2022, published 2024)
pIC50, pKd: −log10 of the molar value. Counter-ions that a name gives are not always drawn. Like-named read-outs stand apart in the source and are kept apart here.

How the values were obtained:
[1] = target: T1, TYK2 JH2 (Homo sapiens, UniProt P29597); assay: TYK2 JH2 binding assay (KINOMEscan KdELECT competitive binding); conditions: TYK2 JH2 domain
T1 construct: purchased DiscoverX (KINOMEscan KdELECT service); host or cells: E. coli BL21-derived (T7 phage display) or HEK-293
Outline: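 Beads carrying a biotinylated ligand were mixed with tagged JH2 kinase and compound (11 points, 3-fold steps, 0.9% DMSO) and shaken 1 h at room temperature. After washing, kinase was released with 0.5 μM untagged ligand over 30 min and measured by qPCR to derive Kd.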

[2] = test system: JAK1/TYK2 pSTAT5 (Tyr694/699) in THP-1 cell line; assay: IFNa-stimulated JAK1/TYK2 pSTAT5 (Tyr694/699) inhibition cellular assay, AlphaLISA; format: cell-based; conditions: Homo sapiens, THP-1 cells, AlphaLISA (Assay B)
Outline: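 THP-1, 2e4 cells/well, HBSS; cpd 1 h 37 °C (10000–0.04 nM final, 6-fold, 8 pt); IFNa 100 ng/mL added, 30 min; lyse, freeze −80 °C; pSTAT5 AlphaLISA, 615 nm; 4PL IC50, bottom fixed 0, slope −1.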

[3] = KINOMEscan KdELECT (Assay A), read-out: Biochemical TYK2_DiscoverX_JH2_BND_Kd
[4] = IFNa-stimulated, read-out: Cellular_THP1_IFNa-pSTATS_TYK2
[5] = DiscoverX KINOMEscan KdELECT (Assay A), read-out: Biochemical TYK2_DiscoverX_JH2_BND_Kd
[6] = KINOMEscan KdELECT (Assay A), read-out: Biochemical TYK2_JH2_Kd
[7] = IFNa-stimulated, read-out: Cellular THP1_IFNa-pSTATS_IC50
[8] = IFNa-stimulated pSTAT5 (Tyr694/699), read-out: Cellular_THP1_IFNa-pSTATS_TYK2

T1 sequence (P29597 589-875 limits assumed): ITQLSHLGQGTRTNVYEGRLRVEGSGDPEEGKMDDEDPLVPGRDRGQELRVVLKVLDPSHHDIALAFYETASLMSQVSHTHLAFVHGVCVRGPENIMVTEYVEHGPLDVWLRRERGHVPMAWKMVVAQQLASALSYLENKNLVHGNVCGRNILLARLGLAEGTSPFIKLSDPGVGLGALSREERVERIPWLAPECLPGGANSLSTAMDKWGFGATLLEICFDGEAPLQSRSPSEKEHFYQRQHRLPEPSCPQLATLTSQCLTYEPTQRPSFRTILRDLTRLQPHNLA

pKd [1, 3] | pIC50 [2, 4] | pKd [1, 5] | Structure (SMILES) | further results
≥ 7.00 | ≥ 6.30 | – | CNc1ncc(C#Cc2ccc(C(C)=O)c(O)c2)c2cc(NC(=O)C3CC3)ncc12 [Example 749, N-(5-((4-acetyl-3-hydroxyphenyl)ethynyl)-8-(methylamino)-2,7-naphthyridin-3-yl)cyclopropanecarboxamide] | –
≥ 7.00 | ≥ 6.30 | – | CNc1ncc(C#Cc2ccc(OC)cn2)c2cc(NC(=O)C3CC3)ncc12 [Example 613] | –
– | ≥ 6.30 | ≥ 7.00 | CNc1ncc(-c2nc3ccc(N4CCO[C@H](C)C4)cn3n2)c2cc(NC(=O)[C@H]3C[C@H]3C)ncc12 [Example 547, (1S,2R)-2-methyl-N-(8-(methylamino)-5-(6-((R)-2-methylmorpholino)-[1,2,4]triazolo[1,5-a]pyridin-2-yl)-2,7-naphthyridin-3-yl)cyclopropane-1-carboxamide] | –
– | ≥ 6.30 | ≥ 7.00 | CNc1ncc(-c2nc3ccc(N4CCOCC4)cn3n2)c2cc(NC(=O)[C@H]3C[C@H]3C(F)F)ncc12 (single isomer, unassigned) [Example 534] | –
≥ 7.00 | ≥ 6.30 | – | CNc1ncc(C#Cc2ccc(OC)cn2)c2cc(NC(=O)[C@H]3C[C@H]3C(F)(F)F)ncc12 (single isomer, unassigned) [Example 747] | –
≥ 7.00 | ≥ 6.30 | – | CNc1ncc(C#Cc2ccc(N3CCC3COC)cn2)c2cc(NC(=O)C3CC3)ncc12 (stereo not drawn) [Example 727, N-(5-((5-(2-(methoxymethyl)azetidin-1-yl)pyridin-2-yl)ethynyl)-8-(methylamino)-2,7-naphthyridin-3-yl)cyclopropanecarboxamide] | –
≥ 7.00 | ≥ 6.30 | – | CCn1c(C)nc2ccc(C#Cc3cnc(NC)c4cnc(NC(=O)C5CC5)cc34)cc21 [Example 761, N-(5-((1-ethyl-2-methyl-1H-benzo[d]imidazol-6-yl)ethynyl)-8-(methylamino)-2,7-naphthyridin-3-yl)cyclopropanecarboxamide] | –
≥ 7.00 | ≥ 6.30 | – | CNc1ncc(C#Cc2ccc(-n3cccn3)cn2)c2cc(NC(=O)C3CC3)ncc12 [Example 954, N-(5-((5-(1H-pyrazol-1-yl)pyridin-2-yl)ethynyl)-8-(methylamino)-2,7-naphthyridin-3-yl)cyclopropanecarboxamide] | –
≥ 7.00 | ≥ 6.30 | – | CNc1ncc(C#Cc2cc3ccccn3n2)c2cc(NC(=O)[C@H]3C[C@H]3C(F)F)ncc12 (single isomer, unassigned) [Example 755] | –
≥ 7.00 | – | – | CNc1ncc(C#Cc2ccc(OCF)cc2)c2cc(NC(=O)[C@H]3C[C@H]3C)ncc12 [Example 1073, (1S,2R)-N-[5-[2-[4-(fluoromethoxy)phenyl]ethynyl]-8-(methylamino)-2,7-naphthyridin-3-yl]-2-methyl-cyclopropanecarboxamide] | pIC50 [2, 8]: ≥ 6.30
≥ 7.00 | ≥ 6.30 | – | CNc1ncc(-c2nc3cc(N4CCO[C@@H](C(F)(F)F)C4)ccc3o2)c2cc(NC(=O)C3CC3)ncc12 (single isomer, unassigned) [Example 922] | –
≥ 7.00 | – | – | CNc1ncc(-c2nc3ccc(N4CCOCC4)cn3n2)c2cc(Nc3cc(C(C)(C)O)ccn3)ncc12 [Example 1088, 2-[2-[[8-(methylamino)-5-(6-morpholino-[1,2,4]triazolo[1,5-a]pyridin-2-yl)-2,7-naphthyridin-3-yl]amino]-4-pyridyl]propan-2-ol] | pIC50 [2, 8]: ≥ 6.30
≥ 7.00 | ≥ 6.30 | – | CNc1ncc(C#Cc2ccc3c(c2)n(C)c(=O)n3C)c2cc(NC(=O)C3CC3)ncc12 [Example 614, N-(5-((1,3-dimethyl-2-oxo-2,3-dihydro-1H-benzo[d]imidazol-5-yl)ethynyl)-8-(methylamino)-2,7-naphthyridin-3-yl)cyclopropanecarboxamide] | –
≥ 7.00 | < 6.30 | – | CNc1ncc(-c2nc3n(n2)CCC3)c2cc(NC(=O)C3CC3)ncc12 [Example 853, N-(5-(6,7-dihydro-5H-pyrrolo[1,2-b][1,2,4]triazol-2-yl)-8-(methylamino)-2,7-naphthyridin-3-yl)cyclopropanecarboxamide formate] | –
≥ 7.00 | ≥ 6.30 | – | CNc1ncc(C#Cc2ccc3c(c2)nc(C)n3C(F)F)c2cc(NC(=O)C3CC3)ncc12 [Example 764, A-(5-((1-(difluoromethyl)-2-methyl-1H-benzo[d]imidazol-5-yl)ethynyl)-8-(methylamino)-2,7-naphthyridin-3-yl)cyclopropanecarboxamide] | –
≥ 7.00 | – | – | CC[C@H]1CN(c2ccc3nc(-c4cnc(NC)c5cnc(NC(=O)[C@H]6C[C@H]6C)cc45)nn3c2)CCO1 (single isomer, unassigned) [Example 1079] | pIC50 [2, 8]: ≥ 6.30
≥ 7.00 | ≥ 6.30 | – | CNc1ncc(-c2nc3cc(N4CCO[C@H](C(F)(F)F)C4)ccc3o2)c2cc(NC(=O)C3CC3)ncc12 (single isomer, unassigned) [Example 923] | –

The next lines start with the compound.

Structure (SMILES) | pKd [1, 3] | pIC50 [2, 4] | pKd [1, 5] | further results
O=C(Nc1cc2c(-c3nc4ccccn4n3)cnc(NC3CC3)c2cn1)C1CC1 [Example 519, N-(5-([1,2,4]triazolo[1,5-a]pyridin-2-yl)-8-(cyclopropylamino)-2,7-naphthyridin-3-yl)cyclopropanecarboxamide] | – | < 6.30 | ≥ 7.00 | –
CNc1ncc(-c2nc3ccc(N4CC(F)(F)C4)cn3n2)c2cc(NC(=O)C3CC3)ncc12 [Example 472, N-(5-(6-(3,3-difluoroazetidin-1-yl)-[1,2,4]triazolo[1,5-a]pyridin-2-yl)-8-(methylamino)-2,7-naphthyridin-3-yl)cyclopropanecarboxamide] | – | ≥ 6.30 | ≥ 7.00 | –
CNc1ncc(-c2nc3cc(N4CC5COCC(C5)C4)ccc3o2)c2cc(NC(=O)C3CC3)ncc12 [Example 285, N-(5-(5-(3-oxa~7-azabicyclo[3.3.1]nonan-7-yl)benzo[d]oxazol-2-yl)-8-(methylamino)-2,7-naphthyridin-3-yl)cyclopropanecarboxamide] | – | ≥ 6.30 | ≥ 7.00 | –
CNc1ncc(-c2nc3cc(NC(C)=O)ccc3o2)c2cc(NC(=O)C3CC3)ncc12 [Example 295, N-(5-(5-acetamidobenzo[d]oxazol-2-yl)-8-(methylamino)-2,7-naphthyridin-3-yl)cyclopropanecarboxamide] | – | ≥ 6.30 | ≥ 7.00 | –
CNc1ncc(-c2nc3cc(OCCC#N)ccc3o2)c2cc(NC(=O)C3CC3)ncc12 [Example 227, N-(5-(5-(2-cyanoethoxy)benzo[d]oxazol-2-yl)-8-(methylamino)-2,7-naphthyridin-3-yl)cyclopropanecarboxamide] | – | ≥ 6.30 | ≥ 7.00 | –
CNc1ncc(-c2nc3ccc(OCc4ccccc4)cn3n2)c2cc(NC(=O)C3CC3)ncc12 [Example 500, N-(5-(6-(benzyloxy)-[1,2,4]triazolo[1,5-a]pyridin-2-yl)-8-(methylamino)-2,7-naphthyridin-3-yl)cyclopropanecarboxamide] | – | ≥ 6.30 | ≥ 7.00 | –
CNc1ncc(-c2ncn(C)n2)c2cc(NC(=O)C3CC3)ncc12 [Example 141, N-(S-(1-methyl-1H-1,2,4-triazol-3-yl)-8-(methylamino)-2,7-naphthyridin-3-yl)cyclopropanecarboxamide] | – | – | – | pKd [1, 6]: ≥ 7.00; pIC50 [2, 7]: < 6.30
CNc1ncc(-c2ccccc2SC)c2cc(NC(=O)C3CC3)ncc12 [Example 47, N-(8-(methylamino)-5-(2-(methylthio)phenyl)-2,7-naphthyridin-3-yl)cyclopropanecarboxamide] | – | – | – | pKd [1, 6]: 6.00 to 7.00; pIC50 [2, 7]: < 6.30
CNc1ncc(-c2ncccc2OC)c2cc(NC(C)=O)ncc12 [Example 89, N-(5-(3-methoxypyridin-2-yl)-8-(methylamino)-2,7-naphthyridin-3-yl)acetamide] | – | – | – | pKd [1, 6]: 6.00 to 7.00; pIC50 [2, 7]: < 6.30
CNc1ncc(-c2nc3cc(NCCOC)ccc3o2)c2cc(NC(=O)C3CC3)ncc12 [Example 294, N-(5-(5-((2-methoxyethyl)amino)benzo[d]oxazol-2-yl)-8-(methylamino)-2,7-naphthyridin-3-yl)cyclopropanecarboxamide] | – | ≥ 6.30 | ≥ 7.00 | –
CNc1ncc(-c2nc3cc(N4CC5(CN(C)C5)C4)ccc3o2)c2cc(NC(=O)C3CC3)ncc12 [Example 300, N-(5-(5-(6-methyl-2,6-diazaspiro[3.3]heptan-2-yl)benzo[d]oxazol-2-yl)-8-(methylamino)-2,7-naphthyridin-3-yl)cyclopropanecarboxamide] | – | ≥ 6.30 | ≥ 7.00 | –
CNc1ncc(-c2ccncc2OC)c2cc(NC(=O)C3CC3)ncc12 [Example 8, N-(5-(3-methoxypyridin-4-yl)-8-(methylamino)-2,7-naphthyridin-3-yl)cyclopropanecarboxamide] | – | – | – | pKd [1, 6]: ≥ 7.00; pIC50 [2, 7]: < 6.30
CNc1ncc(-c2nc3cc(N4CC5CCC(C4)O5)ccc3o2)c2cc(NC(=O)C3CC3)ncc12 [Example 305] | – | ≥ 6.30 | ≥ 7.00 | –
